Assay results taken from patent US7834011B2, “Heterocyclylalkyl derivatives as novel inhibitors of histone deacetylase” (Janssen Pharmaceutica N.V., priority 2006, dated 2010).

What was measured:
[1] = tested on: A2780 ovarian carcinoma cells; test: Antiproliferative activity on A2780 cells (MTT); format: cell-based; details: Homo sapiens, 96 h, four days of incubation, read-out: Cellular activity pIC50 C.2 (converted)
Protocol: Cellular activity of the compounds of formula (I) was determined on A2780 tumour cells using a colorimetric assay for cell toxicity or survival (Mosmann Tim, Journal of Immunological Methods 65: 55-63, 1983)(see example C.2).
All compounds tested were dissolved in DMSO and further dilutions were made in culture medium. Final DMSO concentrations never exceeded 0.1% (v/v) in cell proliferation assays. Controls contained A2780 cells and DMSO without compound and blanks contained DMSO but no cells. MTT was dissolved at 5 mg/ml in PBS. A glycine buffer comprised of 0.1 M glycine and 0.1 M NaCl buffered to pH 10.5 with NaOH (1 N) was prepared (all reagents were from Merck).
The human A2780 ovarian carcinoma cells (a kind gift from Dr. T. C. Hamilton [Fox Chase Cancer Centre, Pennsylvania, USA]) were cultured in RPMI 1640 medium supplemented with 2 mM L-glutamine, 50 μg/ml gentamicin and 10% fetal calf serum. Cells were routinely kept as monolayer cultures at 37° C. in a humidified 5% CO2 atmosphere. Cells were passaged once a week using a trypsin/EDTA solution at a split ratio of 1:40. All media and supplements were obtained from Life Technologies. Cells were free of mycoplasma contamination as determined using the Gen-Probe Mycoplasma Tissue Culture kit (supplier: BioMérieux).
Cells were seeded in NUNC™ 96-well culture plates (Supplier: Life Technologies) and allowed to adhere to the plastic overnight. Densities used for plating were 1500 cells per well in a total volume of 200 μl medium. After cell adhesion to the plates, medium was changed and drugs and/or solvents were added to a final volume of 200 μl. Following four days of incubation, medium was replaced by 200 μl fresh medium and cell density and viability was assessed using an MTT-based assay. To each well, 25 μl MTT solution was added and the cells were further incubated for 2 hours at 37° C. The medium was then carefully aspirated and the blue MTT-formazan product was solubilized by addition of 25 μl glycine buffer followed by 100 μl of DMSO. […] Within an experiment, the results for each experimental condition are the mean of 3 replicate wells. For initial screening purposes, compounds were tested at a single fixed concentration of 10^−6 M. For active compounds, the experiments were repeated to establish full concentration-response curves. For each experiment, controls (containing no drug) and a blank incubation (containing no cells or drugs) were run in parallel. The blank value was subtracted from all control and sample values. For each sample, the mean value for cell growth (in absorbance units) was expressed as a percentage of the mean value for cell growth of the control. […] Herein the effects of test compounds are expressed as pIC50 (the negative log value of the IC50-value)(see Table F-2).

[2] = target: histone deacetylase (HeLa nuclear extracts); test: In vitro assay for inhibition of histone deacetylase with fluorescent-labelled substrate (Fluor de Lys); format: biochemical
Source text: The in vitro assay for inhibition of histone deacetylase (see example C.1) measures the inhibition of HDAC enzymatic activity obtained with the compounds of formula (I).
The HDAC Fluorescent Activity Assay/Drug Discovery Kit of Biomol (cat. No: AK-500-0001) was used. The HDAC Fluorescent Activity Assay is based on the Fluor de Lys (Fluorogenic Histone deAcetylase Lysyl) substrate and developer combination. The Fluor de Lys substrate, comprises an acetylated lysine side chain. Deacetylation of the substrate sensitizes the substrate so that, in the second step, treatment with the Fluor de Lys developer produces a fluorophore.
HeLa nuclear extracts (supplier: Biomol) were incubated at 60 μg/ml with 75 μM of substrate. The Fluor de Lys substrate was added in a buffer containing 25 mM Tris, 137 mM NaCl, 2.7 mM KCl and 1 mM MgCl2.6H2O at pH 7.4. After 30 min, 1 volume of the developer was added. The fluorophore was excited with 355 nm light and the emitted light (450 nm) was be detected on a fluorometric plate reader.
For each experiment, controls (containing HeLa nuclear extract and buffer), a blank incubation (containing buffer but no HeLa nuclear extract) and samples (containing compound dissolved in DMSO and further diluted in buffer and HeLa nuclear extract) were run in parallel. In first instance, compounds were tested at a concentration of 10^−5M. […] All sample were tested 4 times. In each test the blank value was subtracted from both the control and the sample values. The control sample represented 100% of substrate deactylation. For each sample the fluorescence was expressed as a percentage of the mean value of the controls. […] Herein the effects of test compounds are expressed as pIC50 (the negative log value of the IC50-value) (see Table F-2).

IC50 [1]: 100 nM
Enzymatic activity pIC50 C.1 [2]: 8.1
SMILES: Cn1c(CNCC2CCN(c3ncc(C(=O)NO)cn3)CC2)nc2ccccc21 [Compound 3]
